# In patent publication US20060264460A1 (Wyeth, priority 2005, published 2006):
# Target: T1, human Cot/Tpl2 kinase (Homo sapiens, UniProt P41279)
# T1 construct: human Cot/Tpl2 kinase construct encoding residues 30-398; 6His (N); made in house; host or cells: Sf9 insect cells, baculovirus system (BD Biosciences)
# Assay: Tpl2/Cot kinase assay: GST-MEK1 phosphorylation detected by ELISA (DELFIA Eu)
# Type: biochemical
# Details: Tpl2/Cot kinase, GST-MEK1 substrate, 50 uM ATP
# Method in brief: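 Substrate phosphorylation (GST-MEK1 Ser217/221) quantified by DELFIA europium ELISA, yielding IC50 values. Reaction: 1 h at 30° C, pH 7.2 MOPS buffer, 50 uM ATP, 35 nM GST-MEK1, 0.4 nM monomeric His-Tpl2 purified from Sf9 cells, compounds at 1% final DMSO; stopped with EDTA.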
# T1 sequence (P41279 30-398): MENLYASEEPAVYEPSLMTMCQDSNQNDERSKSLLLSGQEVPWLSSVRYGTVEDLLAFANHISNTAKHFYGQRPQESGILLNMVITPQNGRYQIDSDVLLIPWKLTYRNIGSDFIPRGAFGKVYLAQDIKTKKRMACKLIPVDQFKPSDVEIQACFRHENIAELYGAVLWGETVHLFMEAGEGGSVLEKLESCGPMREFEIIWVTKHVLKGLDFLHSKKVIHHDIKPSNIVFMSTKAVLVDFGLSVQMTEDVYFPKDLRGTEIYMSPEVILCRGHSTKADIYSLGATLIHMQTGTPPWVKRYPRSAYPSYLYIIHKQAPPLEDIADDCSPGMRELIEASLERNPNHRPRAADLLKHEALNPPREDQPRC
row,IC50 [nM],SMILES
1,170,CC(C)Cn1cc(CNc2cc(Cl)c3ncc(C#N)c(Nc4ccc(F)c(Cl)c4)c3c2)nn1 [Example 847]
2,1910,CN1CCC(CNc2cc(Cl)c3ncc(C#N)c(Nc4ccc(F)c(Cl)c4)c3c2)CC1 [Example 849]
3,120,N#Cc1cnc2c(Cl)cc(NCc3cn(CCCN4C(=O)c5ccccc5C4=O)nn3)cc2c1Nc1ccc(F)c(Cl)c1 [Example 852]
4,1190,CCN1CCCC(Nc2cc(Cl)c3ncc(C#N)c(Nc4ccc(F)c(Cl)c4)c3c2)C1 (stereo not shown) [Example 868]
5,1970,CCN1CCCCC1CNc1cc(Cl)c2ncc(C#N)c(Nc3ccc(F)c(Cl)c3)c2c1 (stereo not shown) [Example 870]
6,96,CC(=O)N1CCCC(Nc2cc(Cl)c3ncc(C#N)c(Nc4ccc(F)c(Cl)c4)c3c2)C1 (stereo not shown) [Example 872]
7,610,CC(=O)N1CCCC(CNc2cc(Cl)c3ncc(C#N)c(Nc4ccc(F)c(Cl)c4)c3c2)C1 (stereo not shown) [Example 874]
8,620,CC(=O)N1CCCCC1CNc1cc(Cl)c2ncc(C#N)c(Nc3ccc(F)c(Cl)c3)c2c1 (stereo not shown) [Example 875]
9,1.3,N#Cc1cnc2c(Cl)cc(NCc3cn(CC(=O)NC4CC4)nn3)cc2c1Nc1ccc(F)c(Cl)c1 [Example 876]
10,110,CC(C)N1CCCC1Cn1cc(CNc2cc(Br)c3ncc(C#N)c(Nc4ccc(F)c(Cl)c4)c3c2)nn1 (stereo not shown) [Example 878]
11,1.1,N#Cc1cnc2c(Cl)cc(NCc3cn(Cc4cncnc4)nn3)cc2c1Nc1ccc(F)c(Cl)c1 [Example 879]
12,270,N#Cc1cnc2c(Cl)cc(NCc3cn(Cc4cccc(C(F)(F)F)n4)nn3)cc2c1Nc1ccc(F)c(Cl)c1 [Example 882]
13,80,N#Cc1cnc2c(Cl)cc(NCc3cn(Cc4ccnc(C(F)(F)F)c4)nn3)cc2c1Nc1ccc(F)c(Cl)c1 [Example 883]
14,160,CC(C)(C)OC(=O)N1CCC[C@@H]1Cn1cc(CNc2cc(Cl)c3ncc(C#N)c(Nc4ccc(F)c(Cl)c4)c3c2)nn1 [Example 887]
15,200,CC(C)(C)OC(=O)N1CCC[C@H]1Cn1cc(CNc2cc(Cl)c3ncc(C#N)c(Nc4ccc(F)c(Cl)c4)c3c2)nn1 [Example 888]
16,8.4,N#Cc1cnc2c(Cl)cc(NCc3cn(C[C@H]4CCCN4)nn3)cc2c1Nc1ccc(F)c(Cl)c1 [Example 889]
17,7.6,N#Cc1cnc2c(Cl)cc(NCc3cn(C[C@@H]4CCCN4)nn3)cc2c1Nc1ccc(F)c(Cl)c1 [Example 890]
18,33,CN1CCC[C@@H]1Cn1cc(CNc2cc(Cl)c3ncc(C#N)c(Nc4ccc(F)c(Cl)c4)c3c2)nn1 [Example 891]
19,30,CCN1CCC[C@@H]1Cn1cc(CNc2cc(Cl)c3ncc(C#N)c(Nc4ccc(F)c(Cl)c4)c3c2)nn1 [Example 892]
20,46,CC(C)N1CCC[C@@H]1Cn1cc(CNc2cc(Cl)c3ncc(C#N)c(Nc4ccc(F)c(Cl)c4)c3c2)nn1 [Example 893]
21,1.8,CN1CCC[C@H]1Cn1cc(CNc2cc(Cl)c3ncc(C#N)c(Nc4ccc(F)c(Cl)c4)c3c2)nn1 [Example 894]

row,IC50 [nM],SMILES
1,10,CCN1CCC[C@H]1Cn1cc(CNc2cc(Cl)c3ncc(C#N)c(Nc4ccc(F)c(Cl)c4)c3c2)nn1 [Example 895]
2,34,CC(C)N1CCC[C@H]1Cn1cc(CNc2cc(Cl)c3ncc(C#N)c(Nc4ccc(F)c(Cl)c4)c3c2)nn1 [Example 896]
3,110,CN(C)C(=O)N1CCC[C@@H]1Cn1cc(CNc2cc(Cl)c3ncc(C#N)c(Nc4ccc(F)c(Cl)c4)c3c2)nn1 [Example 897]
4,0.2,CC(=O)N1CCC[C@@H]1Cn1cc(CNc2cc(Cl)c3ncc(C#N)c(Nc4ccc(F)c(Cl)c4)c3c2)nn1 [Example 898]
5,0.6,CCNC(=O)N1CCC[C@@H]1Cn1cc(CNc2cc(Cl)c3ncc(C#N)c(Nc4ccc(F)c(Cl)c4)c3c2)nn1 [Example 899]
6,0.5,CN(C)C(=O)N1CCC[C@H]1Cn1cc(CNc2cc(Cl)c3ncc(C#N)c(Nc4ccc(F)c(Cl)c4)c3c2)nn1 [Example 900]
7,1,CC(=O)N1CCC[C@H]1Cn1cc(CNc2cc(Cl)c3ncc(C#N)c(Nc4ccc(F)c(Cl)c4)c3c2)nn1 [Example 901]
8,0.5,CCNC(=O)N1CCC[C@H]1Cn1cc(CNc2cc(Cl)c3ncc(C#N)c(Nc4ccc(F)c(Cl)c4)c3c2)nn1 [Example 902]
9,2.8,CS(=O)(=O)NCCCn1cc(CNc2cc(Cl)c3ncc(C#N)c(Nc4ccc(F)c(Cl)c4)c3c2)nn1 [Example 905]
10,1.3,N#Cc1cnc2c(Cl)cc(NCc3cn(CCCNS(=O)(=O)C(F)(F)F)nn3)cc2c1Nc1ccc(F)c(Cl)c1 [Example 906]
11,4.5,CC(C)S(=O)(=O)NCCCn1cc(CNc2cc(Cl)c3ncc(C#N)c(Nc4ccc(F)c(Cl)c4)c3c2)nn1 [Example 907]
12,1,CC(C)NC(=O)NCCCn1cc(CNc2cc(Cl)c3ncc(C#N)c(Nc4ccc(F)c(Cl)c4)c3c2)nn1 [Example 908]
13,1,CNC(=O)NCCCn1cc(CNc2cc(Cl)c3ncc(C#N)c(Nc4ccc(F)c(Cl)c4)c3c2)nn1 [Example 909]
14,0.7,CC(=O)NCCCn1cc(CNc2cc(Cl)c3ncc(C#N)c(Nc4ccc(F)c(Cl)c4)c3c2)nn1 [Example 910]
15,2.4,CC(C)C(=O)NCCCn1cc(CNc2cc(Cl)c3ncc(C#N)c(Nc4ccc(F)c(Cl)c4)c3c2)nn1 [Example 911]
16,1.9,N#Cc1cnc2c(Cl)cc(NCc3cn(CCCNC(=O)C4CC4)nn3)cc2c1Nc1ccc(F)c(Cl)c1 [Example 912]
17,45,CC(C)CN(CCCn1cc(CNc2cc(Cl)c3ncc(C#N)c(Nc4ccc(F)c(Cl)c4)c3c2)nn1)CC(C)C [Example 913]
18,52,N#Cc1cnc2c(Cl)cc(NCc3cn(CCCNC4CCCC4)nn3)cc2c1Nc1ccc(F)c(Cl)c1 [Example 914]
19,76,COCn1cc(CNc2cc(Br)c3ncc(C#N)c(Nc4ccc(F)c(Cl)c4)c3c2)nn1 [Example 917]
20,0.9,N#Cc1cnc2c(Cl)cc(NCc3cn(CCc4ccncc4)nn3)cc2c1Nc1ccc(F)c(Cl)c1 [Example 918]

# Second part, the compound before the results:
row,SMILES,IC50 [nM]
1,CC(=O)N(CCNc1cc(Cl)c2ncc(C#N)c(Nc3ccc(F)c(Cl)c3)c2c1)Cc1ccccn1 [Example 846],170
2,CCN(CC1CCN(C(=O)c2cccnc2)CC1)c1cc(Cl)c2ncc(C#N)c(Nc3ccc(F)c(Cl)c3)c2c1 [Example 848],380
3,N#Cc1cnc2c(Cl)cc(NCC3CCN(C(=O)c4cccnc4)CC3)cc2c1Nc1ccc(F)c(Cl)c1 [Example 850],130
4,CN(C)C(=O)Cn1cc(CN(C)c2cc(Cl)c3ncc(C#N)c(Nc4ccc(F)c(Cl)c4)c3c2)nn1 [Example 851],150
5,CS(=O)(=O)NCCNc1cc(Cl)c2ncc(C#N)c(Nc3ccc(F)c(Cl)c3)c2c1 [Example 853],880
6,N#Cc1cnc2c(Cl)cc(NCCNS(=O)(=O)c3ccccc3)cc2c1Nc1ccc(F)c(Cl)c1 [Example 854],1960
7,N#Cc1cnc2c(Cl)cc(NCCNS(=O)(=O)c3cccnc3)cc2c1Nc1ccc(F)c(Cl)c1 [Example 855],> 3000
8,N#Cc1cnc2c(Cl)cc(NCCNS(=O)(=O)c3ccccn3)cc2c1Nc1ccc(F)c(Cl)c1 [Example 856],820
9,N#Cc1cnc2c(Cl)cc(NCCNS(=O)(=O)Cc3ccccn3)cc2c1Nc1ccc(F)c(Cl)c1 [Example 857],670
10,N#Cc1ccc(S(=O)(=O)NCCNc2cc(Cl)c3ncc(C#N)c(Nc4ccc(F)c(Cl)c4)c3c2)cc1 [Example 858],790
11,N#Cc1cnc2c(Cl)cc(NCCNC(=O)c3ccccn3)cc2c1Nc1ccc(F)c(Cl)c1 [Example 859],> 3000
12,N#Cc1cnc2c(Cl)cc(NCCNC(=O)c3cccnc3)cc2c1Nc1ccc(F)c(Cl)c1 [Example 860],> 3000
13,N#Cc1cnc2c(Cl)cc(NCCNC(=O)Cc3ccccn3)cc2c1Nc1ccc(F)c(Cl)c1 [Example 861],> 3000
14,N#Cc1cnc2c(Cl)cc(NCCNC(=O)Cc3cccnc3)cc2c1Nc1ccc(F)c(Cl)c1 [Example 862],> 3000
15,N#Cc1cnc2c(Cl)cc(NCCNC(=O)Cc3ccncc3)cc2c1Nc1ccc(F)c(Cl)c1 [Example 863],1040
16,N#Cc1cnc2c(Cl)cc(NCCNC(=O)c3cncnc3)cc2c1Nc1ccc(F)c(Cl)c1 [Example 864],650
17,CC(=O)N1CCC(CN(C(C)=O)c2cc(Cl)c3ncc(C#N)c(Nc4ccc(F)c(Cl)c4)c3c2)CC1 [Example 865],380
18,CC(=O)N1CCC(CNc2cc(Cl)c3ncc(C#N)c(Nc4ccc(F)c(Cl)c4)c3c2)CC1 [Example 866],260
19,N#Cc1cnc2c(Cl)cc(NC3CCN(Cc4cccnc4)CC3)cc2c1Nc1ccc(F)c(Cl)c1 [Example 869],820
20,CC(=O)N1CCC(Nc2cc(Cl)c3ncc(C#N)c(Nc4ccc(F)c(Cl)c4)c3c2)C1 (stereo not shown) [Example 871],150
21,CC(=O)N1CCC(Nc2cc(Cl)c3ncc(C#N)c(Nc4ccc(F)c(Cl)c4)c3c2)CC1 [Example 873],660
22,N#Cc1cnc2c(Br)cc(NCc3cn(Cc4cncnc4)nn3)cc2c1Nc1ccc(F)c(Cl)c1 [Example 880],2.5
23,CCOC(=O)C1CC1CNc1cc(Cl)c2ncc(C#N)c(Nc3ccc(F)c(Cl)c3)c2c1 (stereo not shown) [Example 884],660
24,N#Cc1cnc2c(Cl)cc(NCC(=O)N3CCCCCC3)cc2c1Nc1ccc(F)c(Cl)c1 [Example 885],390
25,N#Cc1cnc2c(Cl)cc(NCC3CC3C(=O)O)cc2c1Nc1ccc(F)c(Cl)c1 (stereo not shown) [Example 886],220
26,N#Cc1cnc2c(Cl)cc(NCC3CCCN(C(=O)CN4CCCCCC4)C3)cc2c1Nc1ccc(F)c(Cl)c1 (stereo not shown) [Example 903],620
27,COCCNCC(=O)N1CCCC(CNc2cc(Cl)c3ncc(C#N)c(Nc4ccc(F)c(Cl)c4)c3c2)C1 (stereo not shown) [Example 904],260
28,N#Cc1cnc2c(Cl)cc(N(C=O)Cc3cn(CCCNC=O)nn3)cc2c1Nc1ccc(F)c(Cl)c1 [Example 915],170
29,CS(=O)(=O)NCCCn1cc(CN(C=O)c2cc(Cl)c3ncc(C#N)c(Nc4ccc(F)c(Cl)c4)c3c2)nn1 [Example 916],830
